{
  "source": "patent US10322112B2",
  "about": "“Compound combinations for attenuation of bacterial virulence” (priority 2016, dated 2019)",
  "key": {"[1]": {"test_system": "P. aeruginosa (PAO1)", "experiment": "Elastase B assay", "type": "cell-based, Pseudomonas aeruginosa", "conditions": "MOPS Glutamate and Glucose media, complete or iron/phosphate depleted, 17 h, 100 μM (compounds 1, 2, 3), relative to DMSO", "method": "(§1) A. Pyocyanin Assay Protocol. The amount of pyocyanin in P. aeruginosa culture supernatants was measured following a reported protocol (O'Loughlin et al., 2013) with modifications. A 10 mL overnight culture of P. aeruginosa PAO1 was grown for 16 h. DMSO stock solutions of test compounds (20 mM) were prepared, and 10 μL or 5 μL aliquots were added to sterile 15 mL borosilicate glass test tubes. An inoculating culture was prepared by diluting the overnight culture 1:100 into freshly prepared assay medium (see above), and 2 mL aliquots of this subculture were added to each test tube (0.5% DMSO, final). The cultures were grown for 17 h, and the final cell density measured by reading OD600. Relative pyocyanin levels were measured by first pelleting 1.5 mL of well-mixed culture at 4,000 g for 10 min, transferring 200 μL of the resulting supernatant to a clear, plastic 96-well microtiter plate, and reading absorbance at 695 nm. Media background absorbance (measured from a “no bacteria” control) was subtracted, the resulting values growth normalized by dividing by the final OD600378, and the data plotted relative to a DMSO-treated positive control. B. Rhamnolipid Assay Protocol. Rhamnolipid was quantified following a reported protocol (Koch et al., 1991) with modifications. Assay cultures were prepared and grown in an identical manner to the pyocyanin assay above. Aliquots of the final culture supernatant (1 mL) were transferred to 1 dram glass vials and extracted twice with 1 mL diethyl ether. The pooled organic fractions were evaporated to dryness, and the resulting residue reconstituted in 200 μL de-ionized water. […] After briefly cooling to room temperature, 200 μL of the resulting yellow to yellow-orange solution was transferred to a clear 96-well microtiter plate, and the absorbance at 421 nm measured. Media background absorbance (measured from a “no bacteria” control) was subtracted, the resulting values growth normalized by dividing by the final OD600, and the data plotted relative to a DMSO-treated positive control. […] The amount of elastase B in P. aeruginosa culture supernatants was measured following a reported protocol (Geske et al., 2007) with modifications. […] To quantify elastase B activity, the undigested elastin was pelleted by centrifugation of the assay plate at 1,500 g for 10 min, after which 100 μL of the supernatant was transferred to a new, clear 96-well plate, and the absorbance at 490 nm measured. Media background absorbance (measured from a “no bacteria” control) was subtracted, the resulting values growth normalized by dividing by the final OD600, and the data plotted relative to a DMSO-treated positive control."}, "[2]": {"test_system": "P. aeruginosa (PAO1)", "experiment": "Rhamnolipid assay", "type": "cell-based, Pseudomonas aeruginosa", "conditions": "MOPS Glutamate and Glucose media, complete or iron/phosphate depleted, 17 h, 100 μM (compounds 1, 2, 3), 25 μM (compound 4), relative to DMSO", "method": "as §1"}},
  "data": [
    {"smiles": "O=C(N[C@H]1CCOC1=O)C1CCCC1", "note": "[compound 3]", "values": [
      {"measurement": "elastase B production, single compound screens", "setting": "[1]", "result": "induced additional rhamnolipid and elastase B production"},
      {"measurement": "rhamnolipid production, single compound screens", "setting": "[2]", "result": "induced additional rhamnolipid and elastase B production"}
    ]}
  ]
}
